Numbers after ± are expanded uncertainties.
What was measured:
[1] = for Normal melting temperature: DTA
[2] = Molar enthalpy of transition or fusion; settings: Crystal; DSC

O=Cc1ccccc1O [2-hydroxybenzaldehyde]
[1]
Settings	vapor or sublimation pressure [kPa]
264.55 K, Crystal, Closed cell (Static) method	0.00232 ± 0.00013
266.52 K, Crystal, Closed cell (Static) method	0.00319 ± 0.00016
266.54 K, Metastable liquid, Closed cell (Static) method	0.00505 ± 0.0003
268.49 K, Crystal, Closed cell (Static) method	0.00453 ± 0.0002
268.5 K, Metastable liquid, Closed cell (Static) method	0.00606 ± 0.00034
270.45 K, Crystal, Closed cell (Static) method	0.00599 ± 0.00025
270.45 K, Metastable liquid, Closed cell (Static) method	0.00727 ± 0.00037
272.44 K, Metastable liquid, Closed cell (Static) method	0.00884 ± 0.00041
274.4 K, Closed cell (Static) method, Liquid	0.01038 ± 0.00046
276.37 K, Closed cell (Static) method, Liquid	0.01235 ± 0.00052
278.29 K, Closed cell (Static) method, Liquid	0.01469 ± 0.00057
280.27 K, Closed cell (Static) method, Liquid	0.01734 ± 0.0006
282.24 K, Closed cell (Static) method, Liquid	0.02049 ± 0.00065
284.23 K, Closed cell (Static) method, Liquid	0.02411 ± 0.0007
286.21 K, Closed cell (Static) method, Liquid	0.02842 ± 0.00077
288.16 K, Closed cell (Static) method, Liquid	0.03343 ± 0.00084
290.13 K, Closed cell (Static) method, Liquid	0.03878 ± 0.00092
292.14 K, Closed cell (Static) method, Liquid	0.0453 ± 0.001
294.09 K, Closed cell (Static) method, Liquid	0.05232 ± 0.0011
296 K, Closed cell (Static) method, Liquid	0.06145 ± 0.0013
298.06 K, Closed cell (Static) method, Liquid	0.0702 ± 0.0014
300.04 K, Closed cell (Static) method, Liquid	0.08175 ± 0.0016
302.02 K, Closed cell (Static) method, Liquid	0.09355 ± 0.0018
304.24 K, Closed cell (Static) method, Liquid	0.1075 ± 0.002
305.97 K, Closed cell (Static) method, Liquid	0.1228 ± 0.0022
307.92 K, Closed cell (Static) method, Liquid	0.1409 ± 0.0021
309.88 K, Closed cell (Static) method, Liquid	0.1603 ± 0.0023
311.9 K, Closed cell (Static) method, Liquid	0.1832 ± 0.0025
313.81 K, Closed cell (Static) method, Liquid	0.2071 ± 0.0027
315.78 K, Closed cell (Static) method, Liquid	0.2358 ± 0.0029
317.77 K, Closed cell (Static) method, Liquid	0.2661 ± 0.0032
319.78 K, Closed cell (Static) method, Liquid	0.3014 ± 0.0035
321.96 K, Closed cell (Static) method, Liquid	0.3441 ± 0.0039
323.95 K, Closed cell (Static) method, Liquid	0.3875 ± 0.0043
325.91 K, Closed cell (Static) method, Liquid	0.4352 ± 0.0047
327.88 K, Closed cell (Static) method, Liquid	0.4884 ± 0.0051
329.84 K, Closed cell (Static) method, Liquid	0.5465 ± 0.0057
331.84 K, Closed cell (Static) method, Liquid	0.611 ± 0.0062
333.81 K, Closed cell (Static) method, Liquid	0.682 ± 0.0068
335.78 K, Closed cell (Static) method, Liquid	0.7604 ± 0.0075
337.76 K, Closed cell (Static) method, Liquid	0.846 ± 0.0083
339.74 K, Closed cell (Static) method, Liquid	0.9402 ± 0.0091
341.67 K, Closed cell (Static) method, Liquid	1.042 ± 0.01

Settings	Normal melting temperature [°C]
[1], Crystal	-0.8 ± 0.5

Settings	Molar enthalpy of transition or fusion [kcal/mol]
[2]	3.18 ± 0.215

O=Cc1ccc(O)cc1 [4-hydroxybenzaldehyde]
[1]
Settings	vapor or sublimation pressure [kPa]
319.14 K, Crystal, Calculated from knudsen effusion weight loss	7.6e-05 ± 2e-05
321.31 K, Crystal, Calculated from knudsen effusion weight loss	0.000101 ± 2e-05
323.2 K, Crystal, Calculated from knudsen effusion weight loss	0.000124 ± 2e-05
325.16 K, Crystal, Calculated from knudsen effusion weight loss	0.000152 ± 2.1e-05
327.35 K, Crystal, Calculated from knudsen effusion weight loss	0.000196 ± 2.1e-05
329.21 K, Crystal, Calculated from knudsen effusion weight loss	0.00024 ± 2.2e-05
331.15 K, Crystal, Calculated from knudsen effusion weight loss	0.000305 ± 2.3e-05
333.36 K, Crystal, Calculated from knudsen effusion weight loss	0.000383 ± 2.4e-05
334.88 K, Crystal, Closed cell (Static) method	0.00047 ± 0.00012
335.2 K, Crystal, Calculated from knudsen effusion weight loss	0.000476 ± 2.6e-05
336.84 K, Crystal, Closed cell (Static) method	0.00058 ± 0.00012
337.14 K, Crystal, Calculated from knudsen effusion weight loss	0.000583 ± 2.9e-05
338.82 K, Crystal, Closed cell (Static) method	0.00072 ± 0.00012
339.28 K, Crystal, Calculated from knudsen effusion weight loss	0.000737 ± 3.3e-05
340.78 K, Crystal, Closed cell (Static) method	0.00089 ± 0.00012
341.2 K, Crystal, Calculated from knudsen effusion weight loss	0.00091 ± 3.8e-05
342.79 K, Crystal, Closed cell (Static) method	0.00109 ± 0.00012
344.73 K, Crystal, Closed cell (Static) method	0.00133 ± 0.00013
346.72 K, Crystal, Closed cell (Static) method	0.00165 ± 0.00013
348.7 K, Crystal, Closed cell (Static) method	0.00199 ± 0.00014
350.66 K, Crystal, Closed cell (Static) method	0.00241 ± 0.00015
352.65 K, Crystal, Closed cell (Static) method	0.00296 ± 0.00017
354.62 K, Crystal, Closed cell (Static) method	0.00358 ± 0.00019
356.58 K, Crystal, Closed cell (Static) method	0.00433 ± 0.00021
358.56 K, Crystal, Closed cell (Static) method	0.00525 ± 0.00024
360.53 K, Crystal, Closed cell (Static) method	0.0064 ± 0.00028
362.52 K, Crystal, Closed cell (Static) method	0.00769 ± 0.00033
364.51 K, Crystal, Closed cell (Static) method	0.00915 ± 0.00038
366.46 K, Crystal, Closed cell (Static) method	0.01071 ± 0.00044
368.43 K, Crystal, Closed cell (Static) method	0.01274 ± 0.00051
370.43 K, Crystal, Closed cell (Static) method	0.01545 ± 0.00056
372.39 K, Crystal, Closed cell (Static) method	0.01842 ± 0.0006
374.32 K, Crystal, Closed cell (Static) method	0.02206 ± 0.00066
376.26 K, Crystal, Closed cell (Static) method	0.02606 ± 0.00072
378.18 K, Metastable liquid, Closed cell (Static) method	0.03765 ± 0.0009
378.32 K, Crystal, Closed cell (Static) method	0.03067 ± 0.00079
380.28 K, Metastable liquid, Closed cell (Static) method	0.04331 ± 0.00099
380.29 K, Crystal, Closed cell (Static) method	0.03625 ± 0.00087
382.26 K, Metastable liquid, Closed cell (Static) method	0.04915 ± 0.0011
384.18 K, Metastable liquid, Closed cell (Static) method	0.05575 ± 0.0012
385.95 K, Metastable liquid, Closed cell (Static) method	0.06255 ± 0.0013
388.15 K, Metastable liquid, Closed cell (Static) method	0.07155 ± 0.0014
390.14 K, Metastable liquid, Closed cell (Static) method	0.08085 ± 0.0016
392.11 K, Closed cell (Static) method, Liquid	0.09145 ± 0.0017
393.98 K, Closed cell (Static) method, Liquid	0.1013 ± 0.0019
396.02 K, Closed cell (Static) method, Liquid	0.1156 ± 0.0021
398.08 K, Closed cell (Static) method, Liquid	0.132 ± 0.0021
399.97 K, Closed cell (Static) method, Liquid	0.1466 ± 0.0022
402.15 K, Closed cell (Static) method, Liquid	0.1659 ± 0.0023
403.9 K, Closed cell (Static) method, Liquid	0.184 ± 0.0025
406.15 K, Closed cell (Static) method, Liquid	0.2077 ± 0.0027
407.83 K, Closed cell (Static) method, Liquid	0.2288 ± 0.0029
409.81 K, Closed cell (Static) method, Liquid	0.2537 ± 0.0031
411.77 K, Closed cell (Static) method, Liquid	0.281 ± 0.0033
413.71 K, Closed cell (Static) method, Liquid	0.315 ± 0.0036
415.68 K, Closed cell (Static) method, Liquid	0.3477 ± 0.0039
417.65 K, Closed cell (Static) method, Liquid	0.3831 ± 0.0042
419.62 K, Closed cell (Static) method, Liquid	0.4264 ± 0.0046
421.57 K, Closed cell (Static) method, Liquid	0.4738 ± 0.005
423.73 K, Closed cell (Static) method, Liquid	0.5285 ± 0.0055
425.48 K, Closed cell (Static) method, Liquid	0.5776 ± 0.0059
427.46 K, Closed cell (Static) method, Liquid	0.6379 ± 0.0064
429.41 K, Closed cell (Static) method, Liquid	0.7018 ± 0.007

Settings	Normal melting temperature [°C]
[1], Crystal	117.1 ± 0.5

Settings	Molar enthalpy of transition or fusion [kcal/mol]
[2]	5.16 ± 0.215
